According to EP4559908A1, “HETEROARYL DERIVATIVE COMPOUND AND USE THEREOF” (S2CBio Inc., priority 2022, dated 2024):

Biological target: T1, human ANO6 (variant 5) (Homo sapiens, UniProt Q4KMQ2)
T1 construct: expressed in transfected cells; host or cells: Fischer rat thyroid (FRT) cells
T1 sequence (Q4KMQ2 1-931 isoform Q4KMQ2-2): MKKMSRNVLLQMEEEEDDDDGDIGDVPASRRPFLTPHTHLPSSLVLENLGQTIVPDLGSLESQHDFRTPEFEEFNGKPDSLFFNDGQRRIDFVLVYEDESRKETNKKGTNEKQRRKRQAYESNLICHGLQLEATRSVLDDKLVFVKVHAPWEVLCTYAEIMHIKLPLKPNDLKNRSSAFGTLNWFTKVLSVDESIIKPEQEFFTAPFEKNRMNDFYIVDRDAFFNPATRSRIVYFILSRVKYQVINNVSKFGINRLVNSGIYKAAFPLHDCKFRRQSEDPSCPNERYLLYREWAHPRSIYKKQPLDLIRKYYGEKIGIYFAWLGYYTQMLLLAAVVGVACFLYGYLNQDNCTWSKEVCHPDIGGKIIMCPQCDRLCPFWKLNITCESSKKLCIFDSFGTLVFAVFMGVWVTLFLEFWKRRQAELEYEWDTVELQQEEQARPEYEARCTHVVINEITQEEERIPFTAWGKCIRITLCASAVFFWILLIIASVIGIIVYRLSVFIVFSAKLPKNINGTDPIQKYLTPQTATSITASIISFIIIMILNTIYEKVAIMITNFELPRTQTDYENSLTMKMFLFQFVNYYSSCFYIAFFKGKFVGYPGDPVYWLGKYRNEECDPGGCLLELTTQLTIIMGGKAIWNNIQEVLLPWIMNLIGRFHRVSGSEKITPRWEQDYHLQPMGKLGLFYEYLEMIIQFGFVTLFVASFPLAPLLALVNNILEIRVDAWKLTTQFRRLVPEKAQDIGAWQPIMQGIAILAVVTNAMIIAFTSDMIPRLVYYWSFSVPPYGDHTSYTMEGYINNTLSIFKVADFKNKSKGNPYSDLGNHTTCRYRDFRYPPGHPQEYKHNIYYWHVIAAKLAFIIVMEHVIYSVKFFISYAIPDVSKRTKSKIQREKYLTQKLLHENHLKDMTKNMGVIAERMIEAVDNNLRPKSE
Assay: Lact C2 assay (measuring phosphatidylserine externalization scramblase function)
Format: cell-based
Conditions: FRT, FRT cells expressing human ANO6 (variant 5), ionomycin 10 µM, Lact-C2-GFP fluorescence, average of three tests; for inhibition at 0.05 µM: compound 50 nM, read-out: % Inhibition 50 nM; for inhibition at 0.1 µM: compound 100 nM; for inhibition at 1 µM: compound 1 µM, read-out: % Inhibition 1 µM
Procedure, shortened: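 Cells were pretreated 10 min with compound (50 nM, 100 nM, 1 µM; 1% DMSO), then given 10 µM ionomycin for 10 min. Surface phosphatidylserine was stained with 500 nM Lact-C2-GFP (10 min, 37 °C), fixed and imaged. Inhibition was scaled between untreated (100%) and ionomycin-alone (0%) wells.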

**Q.** With `FC(F)(F)c1ccc2nc(-c3cccc(Nc4ncc(-c5ccccc5)cn4)c3)[nH]c2c1` [Example 14, 5-phenyl-N-(3-(6-(trifluoromethyl)-1H-benzo[d]imidazol-2-yl)phenyl)pyrimidin-2-amine] as the compound, how does the inhibition at 0.05 µM read?
**A.** > 60%

**Q.** And the inhibition at 0.1 µM?
**A.** > 60%

**Q.** What about the inhibition at 1 µM of the same compound?
**A.** > 60%

**Q.** For `CN(C)c1ccc2nc(-c3cccc(Nc4ccc(-c5cccnn5)cc4)c3)[nH]c2c1` [Example 217, N,N-dimethyl-2-(3-((4-(pyridazin-3-yl)phenyl)amino)phenyl)-1H-benzo[d]imidazol-6-amine], which inhibition at 0.05 µM is on record?
**A.** 30 to 60%

**Q.** And the inhibition at 1 µM?
**A.** > 60%

**Q.** With `Fc1cc(Br)c2[nH]c(-c3cccc(Nc4ccc(-c5ccccc5)nn4)c3)nc2c1` [Example 11, N-(3-(7-bromo-5-fluoro-1H-benzo[d]imidazol-2-yl)phenyl)-6-phenylpyridazin-3-amine] as the compound, how does the inhibition at 0.1 µM read?
**A.** 30 to 60%

**Q.** What about the inhibition at 1 µM of the same compound?
**A.** > 60%

**Q.** With `Fc1ccc2nc(-c3cccc(Nc4ncc(-c5ncccn5)cn4)c3)[nH]c2c1` [Example 247, N-(3-(6-fluoro-1H-benzo[d]imidazol-2-yl)phenyl)-[2,5'-bipyrimidin]-2'-amine] as the compound, how does the inhibition at 1 µM read?
**A.** 30 to 60%

**Q.** `FC(F)(F)c1ccc2nc(-c3cccc(Nc4ncc(-c5ncccn5)cn4)c3)[nH]c2c1` [Example 63, N-{3-[6-(trifluoromethyl)-1H-benzo[d]imidazol-2-yl]phenyl}-[2,5'-bipyrimidin]-2'-amine] was tested. Which inhibition at 0.05 µM did it give?
**A.** > 60%

**Q.** What about the inhibition at 0.1 µM of the same compound?
**A.** > 60%

**Q.** Which inhibition at 1 µM does the source give for `Fc1ccccc1-c1ccc(Nc2cccc(-c3nc4ccccc4[nH]3)c2)cc1` [Example 322, N-(3-(1H-benzo[d]imidazol-2-yl)phenyl)-2'-fluoro-[1,1'-biphenyl]-4-amine] here?
**A.** > 60%
